Results on one compound are retold here after paper PMC2997783, “Genetic and Chemical Evaluation of Trypanosoma brucei Oleate Desaturase as a Candidate Drug Target” (PLoS ONE, 2010).

For assay [1], the target named is T1, stearoyl-CoA desaturase (SCD) (Trypanosoma brucei, UniProt Q57YK1).
T1 construct: gene Tb08.11J15.870; native enzyme in intact bloodstream-form cells; carries a cytochrome b-like domain
T1 sequence (Q57YK1 1-431): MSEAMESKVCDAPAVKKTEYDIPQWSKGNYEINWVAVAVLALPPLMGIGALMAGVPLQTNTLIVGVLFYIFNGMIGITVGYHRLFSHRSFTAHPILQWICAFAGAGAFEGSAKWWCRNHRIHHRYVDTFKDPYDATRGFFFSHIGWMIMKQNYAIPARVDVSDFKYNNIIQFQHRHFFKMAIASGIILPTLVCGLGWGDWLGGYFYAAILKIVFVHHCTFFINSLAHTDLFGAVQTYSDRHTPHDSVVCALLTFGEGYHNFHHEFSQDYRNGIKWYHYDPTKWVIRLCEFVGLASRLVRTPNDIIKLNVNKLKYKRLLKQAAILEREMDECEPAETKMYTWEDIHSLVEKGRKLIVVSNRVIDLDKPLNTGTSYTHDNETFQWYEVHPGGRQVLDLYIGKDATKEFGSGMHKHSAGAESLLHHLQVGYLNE
The assay is described as follows: whole-cell […]-stearate desaturation, argentation-TLC and scintillation counting. In kind it is cell-based. The settings on record: intact bloodstream-form cells; 50 µM 13-TS, 30 min preincubation, 60 min with [14C]-stearate; may act as a metabolite of the added acid.

The next assay has as its target T2, oleate desaturase (OD) (Trypanosoma brucei, UniProt Q6UCJ6).
T2 construct: native full-length enzyme in intact T. brucei cells
T2 sequence (Q6UCJ6 1-408): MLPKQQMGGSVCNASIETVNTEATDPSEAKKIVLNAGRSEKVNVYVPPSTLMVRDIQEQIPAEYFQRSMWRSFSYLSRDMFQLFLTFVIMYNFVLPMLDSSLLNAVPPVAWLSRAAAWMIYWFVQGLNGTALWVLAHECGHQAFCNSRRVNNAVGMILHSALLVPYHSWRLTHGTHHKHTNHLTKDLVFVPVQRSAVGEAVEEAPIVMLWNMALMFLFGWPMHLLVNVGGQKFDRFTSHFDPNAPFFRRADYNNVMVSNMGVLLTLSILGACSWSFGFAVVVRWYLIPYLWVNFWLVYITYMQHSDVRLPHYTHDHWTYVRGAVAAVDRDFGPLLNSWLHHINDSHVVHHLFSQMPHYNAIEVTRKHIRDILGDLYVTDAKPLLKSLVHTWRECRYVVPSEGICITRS
Nature of the assay: whole-cell […]-oleate desaturation, argentation-TLC and scintillation counting. The class given is cell-based. Particulars: intact bloodstream-form cells; 50 µM 13-TS, 30 min preincubation, 60 min with [14C]-oleate; may act as a metabolite of the added acid.

Turning to `CCCCCSCCCCCCCCCCCC(=O)O` [13-TS, 13-thiastearic acid], the “% conversion of stearate to oleate with 50 μM inhibitor (control 23.1%)” value in assay [1] is recorded as 19%. For the same compound, on oleate desaturase (OD), the “% conversion of oleate to linoleate with 50 μM inhibitor (control 20.4%)” value turned out to be 7.7%.
